How the values were obtained:
[1] = tested on: AsPC-1 pancreatic cancer tumor; assay: AsPC-1 xenograft mouse model; type: in vivo, NOD/SCID mice; details: 100 mg/kg i.p. daily for 5 days
Experimental: The effect of GS27 on pancreatic cancer tumor growth in mice was evaluated in a AsPC-1 xenograft mouse model.
Xenograft tumors were generated by injecting AsPC-1 pancreatic cancer cells (0.5×10^6) into the right flank of male NOD/SCID mice (n=5/group). All mice developed tumors in 10 days with size of approximately 100 mm3. For each experiment, mice were randomly distributed into equal groups (5 mice per group) that were untreated or treated by intraperitoneal injections daily for 5 days with 100 mg/kg GS27. Tumor volume (average, SD) and the weight of the animals were evaluated until 24 days post-treatment.

[2] = in vivo; details: female, NOD SCID (NOD.CB17-Prkdc^scid/J), mouse, ip
Description: The guidelines of the NCI DTP (National Cancer Institute, Developmental Therapeutics Program, NIH, USA) for acute toxicity testing (DOI: 10.1021/acs.biomac.8b00959) were followed to determine Maximum Tolerated Dose (MTD) of GS27.
For the MTD studies, NOD.CB 17-Prkdc^scid/J mice (also known as NOD SCID mice) were used. All animals for in vivo experiments were kept under specific pathogen-free (SPF) conditions in Type II Long cages, at the experimental unit of our department (Department of Pharmacology, EL42-BIO_Exp03, protocol license 5542/22806-30/11/2015) in a climate-regulated environment (21±1° C.; 50-55% relative humidity) under a 12 h/12 h (lights on at 7:00 AM) light/dark cycle and allowed ad libitum food and water. Female and male mice, 6-8 weeks old, were used in the studies described here. GS27 compound was administered to 15 female mice at two different doses. GS at either 100 or 50 mg/kg was administered in a single dose via i.p. injection in pre-weighed mice. One group of five mice received the carrier and served as controls. […] Mice were also weighed twice weekly for two weeks.

[3] = tested on: PANC-1 cancer cells; assay: Cell Titer-Glo cell viability assay, PANC-1; type: cell-based, human; details: 5 μM, 24 hours; compared with SB204990 and BMS303141
Description: (§1) The CellTiter-Glo® Luminescent Cell Viability Assay (Promega Corporation; Madison, WI) is a homogeneous method of determining the number of viable cells in culture based on quantitation of the ATP present, an indicator of metabolically active cells. The homogeneous assay procedure involves adding the single reagent (CellTiter-Glo® Reagent) directly to cells cultured in serum-supplemented medium. The homogeneous “add-mix-measure” format results in cell lysis and generation of a luminescent signal proportional to the amount of ATP present. The amount of ATP is directly proportional to the number of cells present in culture.
(§2) Cancer cells (3,000 cells/well) were harvested in a 96-well plate. Then, the cancer cells were treated with GS compounds and incubated for 24 hours. The MT Cell Viability Substrate, NanoLuc® Enzyme and cell culture medium was equilibrated to 37° C. The 2× RealTime-Glo™ reagent was prepared by diluting the MT Cell Viability Substrate and NanoLuc® Enzyme in 37° C. cell culture medium to a 2× concentration for each reagent. […] The cells were kept for ˜20 minutes in the cell culture incubator and then luminescence was measured by using a plate-reading luminometer. […]

[4] = tested on: MCF-10A non-tumorigenic mammary epithelial cells; assay: Cell Glo luminescence cell growth assay, MCF-10A normal cells; type: cell-based, human; details: 10 μM, forty-eight hours post-treatment
Description: as §1, §2
The effects of exemplary compounds on cancer cell lines and one non-tumorigenic cell line (control) were investigated using a high throughput screening assay. More specifically, the effects of the GS compounds on cell growth was evaluated by the XTT assay for cell lines HepG2, HeLa, MCF7 ER+, MDA-MB-231, and MKN-45, and by the Cell Glo luminescence assay for cell lines MIA PaCa-2, HCT-116, MCF-10A, and PANC-1. […]
The effect of GS27 on normal cell growth was evaluated using the MCF-10A cell line. […]
GS27, NDI-091143 and Nexletol (10 μM) were used to treat normal epithelial cells MCF-10A cells. […] Forty-eight hours post-treatment, the growth of MCF-10A cells was evaluated by CellTiter-Glo® Luminescent Cell Viability Assay, as discussed in Example 29.

[5] = tested on: IL-6; assay: ELISA of IL-6 in PMA/LPS-treated THP-1 cells; type: cell-based, human; details: THP-1, PMA then LPS 100 ng/ml 24 hours, 5 uM compound added 2 hours before LPS
Experimental: (§3) Human monocytes (THP-1, ATCC) were cultured in RPMI 1640 media supplemented with HEPES buffer (10 mM), sodium pyruvate (1 mM), glucose (4.5 g/L), fetal bovine serum (10%), penicillin (100 U/mL), streptomycin (100 μg/mL), and 2-mercaptoethanol (0.05 mM). THP-1 cells were treated with PMA (100 ng/ml) for 48 hours and then washed and rested for 24 hours in PMA-free media. These cells were treated with LPS (100 ng/ml) for 24 hours in the presence or absence of 5 uM of […] compounds (added 2 hours before LPS). Cell culture supernatants were collected and IL-1β (cat. No DLB50, R&D Systems), TNF-α (cat. no. DTA00D, R&D Systems) and IL-6 (cat. No D6050, R&D Systems) protein levels were evaluated by ELISA assay.

[6] = tested on: IL-1β; assay: ELISA of IL-1β in PMA/LPS-treated THP-1 cells; type: cell-based, human; details: THP-1, PMA then LPS 100 ng/ml 24 hours, 5 uM compound added 2 hours before LPS
Experimental: as §3

C/C=C(/C=O)[C@@H](CC=O)CC(=O)SCCc1ccccc1 [GS27, S-phenethyl (3S,4E)-4-formyl-3-(2-oxoethyl)hex-4-enethioate]
weight of the mice [1]: did not affect | inhibition of AsPC-1 pancreatic cancer tumor growth ([1]; until 24 days post-treatment): 34% | MTD at 2 weeks [2]: > 200 mg/kg | dose well tolerated for two weeks ([2]; 2 weeks): up to 100 mg/kg | suppression of PANC-1 cancer cell growth [3]: best effect | effect on MCF-10A normal cell growth [4]: did not have any effect

C/C=C(/C=O)[C@@H](CC=O)CC(=O)OCCOc1ccccc1 [GS24, (3S,4E)-4-formyl-3-(2-oxoethyl)-4-hexenoic acid 2-phenoxyethyl ester]
IL-6 protein levels [5]: effective for reducing | IL-1β protein levels [6]: more effectively reduced

From patent US12414960B2, “Analogues of oleuropein and oleacein and uses thereof” (Attica Sciences Ltd., priority 2020, dated 2025)
